pKd: −log10 of the molar value. Where two headings read alike, the source gives them in different places. Bridge positions count the residues as written; N and C are the ends. Peptide text beside a SMILES is read from it.
Target: human IgG
Test: Surface plasmon resonance (SPR) analysis of synthetic peptide binding to human IgG
Conditions: for affinity compared with the parent peptide, in words: compared with GFc-C35-3/15 (T7H, N8R); for affinity compared with the original peptide, in words: compared with GFc-C35-3/15
Protocol: In order to narrow down the amino acid region to be studied, a peptide in which one amino acid was deleted from each end of GFc-C35 (GFc-C35-2/16) and a peptide in which two amino acids were deleted from each end of CFc-C35 (GFc-C35-3/15) were synthesized. Among these peptides, based on the GFc-C35-3/15 synthetic peptide, the effect of the introduction of amino acid mutations on affinity was evaluated. That is, the contribution of each amino acid substitution to affinity was evaluated by synthesizing peptides substituted with frequently or occasionally observed amino acids obtained from the phage libraries and subjecting the resulting synthetic peptides to binding analysis.
Based on the synthetic peptide C35A, peptides substituted with amino acids observed at high frequency in the aforementioned phage libraries were synthesized by introducing amino acid mutations, and in a similar manner to the above, their binding to human IgG was analyzed by surface plasmon resonance (SPR) analysis to evaluate the contribution of each amino acid substitution to affinity.

[1] = SPR, synthetic peptide binding to human IgG, read-out: Kd

Row | Structure (SMILES) | pKd [1] | affinity compared with the parent peptide, in words | affinity compared with the original peptide, in words | pKd (SPR sensorgram analysis, human IgG, read-out: affinity (Kd value))
1 | CC[C@H](C)[C@@H]1NC(=O)[C@H](CC(C)C)NC(=O)[C@H](CC(N)=O)NC(=O)CNC(=O)[C@H](CCCNC(=N)N)NC(=O)[C@H](Cc2c[nH]cn2)NC(=O)[C@H](Cc2ccc(O)cc2)NC(=O)[C@H]([C@@H](C)O)NC(=O)[C@@H](NC(=O)[C@@H](N)CC(=O)O)CSSC[C@@H](C(=O)N[C@H](C(N)=O)[C@@H](C)O)NC(=O)[C@H](Cc2c[nH]c3ccccc23)NC1=O [GFc-C35-3/15 (T7H, N8R, V12I), DCTYHRGNLIWCT] (H-DCTYHRGNLIWCT-NH2; disulfide 2-12) | 5.32 | reduced affinity |  | 
2 | CC(C)C[C@@H]1NC(=O)[C@H](CC(N)=O)NC(=O)CNC(=O)[C@H](CC(N)=O)NC(=O)[C@H](CO)NC(=O)[C@H](Cc2ccc(O)cc2)NC(=O)[C@H]([C@@H](C)O)NC(=O)[C@@H](NC(=O)[C@@H](N)CC(=O)O)CSSC[C@@H](C(=O)N[C@H](C(N)=O)[C@@H](C)O)NC(=O)[C@H](Cc2c[nH]c3ccccc23)NC(=O)[C@H](C(C)C)NC1=O [GFc-C35-3/15 (T7S), DCTYSNGNLVWCT] (H-DCTYSNGNLVWCT-NH2; disulfide 2-12) | 4.59 |  |  | 
3 | CC(C)C[C@@H]1NC(=O)[C@H](CC(N)=O)NC(=O)CNC(=O)[C@H](CC(N)=O)NC(=O)[C@H]([C@@H](C)O)NC(=O)[C@H](Cc2ccc(O)cc2)NC(=O)[C@H]([C@@H](C)O)NC(=O)[C@@H](NC(=O)[C@@H](N)CC(=O)O)CSSC[C@@H](C(=O)N[C@@H](CO)C(N)=O)NC(=O)[C@H](Cc2c[nH]c3ccccc23)NC(=O)[C@H](C(C)C)NC1=O [GFc-C35-3/15 (T15S), DCTYTNGNLVWCS] (H-DCTYTNGNLVWCS-NH2; disulfide 2-12) | 4.47 |  |  | 
4 | CC(C)C[C@@H]1NC(=O)[C@H](CC(N)=O)NC(=O)CNC(=O)[C@H](CC(N)=O)NC(=O)[C@H]([C@@H](C)O)NC(=O)[C@H](Cc2ccccc2)NC(=O)[C@H]([C@@H](C)O)NC(=O)[C@@H](NC(=O)[C@@H](N)CC(=O)O)CSSC[C@@H](C(=O)N[C@H](C(N)=O)[C@@H](C)O)NC(=O)[C@H](Cc2c[nH]c3ccccc23)NC(=O)[C@H](C(C)C)NC1=O [GFc-C35-3/15 (Y6F), DCTFTNGNLVWCT] (H-DCTFTNGNLVWCT-NH2; disulfide 2-12) | 2.68 |  | greatly reduced affinity | 
5 | CC(C)C[C@@H]1NC(=O)[C@H](CC(N)=O)NC(=O)CNC(=O)[C@H](CC(N)=O)NC(=O)[C@H]([C@@H](C)O)NC(=O)[C@H](Cc2c[nH]c3ccccc23)NC(=O)[C@H]([C@@H](C)O)NC(=O)[C@@H](NC(=O)[C@@H](N)CC(=O)O)CSSC[C@@H](C(=O)N[C@H](C(N)=O)[C@@H](C)O)NC(=O)[C@H](Cc2c[nH]c3ccccc23)NC(=O)[C@H](C(C)C)NC1=O [GFc-C35-3/15 (Y6W), DCTWTNGNLVWCT] (H-DCTWTNGNLVWCT-NH2; disulfide 2-12) | 4.30 |  | increased affinity | 
6 | CC(C)C[C@@H]1NC(=O)[C@H](CC(N)=O)NC(=O)CNC(=O)[C@H](CC(N)=O)NC(=O)[C@H]([C@@H](C)O)NC(=O)[C@H](Cc2ccc(O)cc2)NC(=O)[C@H]([C@@H](C)O)NC(=O)[C@@H](NC(=O)[C@@H](N)CC(=O)O)CSSC[C@@H](C(=O)N[C@H](C(N)=O)[C@@H](C)O)NC(=O)[C@H](Cc2c[nH]c3ccccc23)NC(=O)[C@H](C(C)C)NC1=O [GFc-C35-3/15, DCTYTNGNLVWCT] (H-DCTYTNGNLVWCT-NH2; disulfide 2-12) | 3.89 |  |  | 
7 | CC(C)C[C@@H]1NC(=O)[C@H](CCC(=O)O)NC(=O)CNC(=O)[C@H](CCCNC(=N)N)NC(=O)[C@H](Cc2c[nH]cn2)NC(=O)[C@H](Cc2ccc(O)cc2)NC(=O)[C@H](C)NC(=O)[C@@H](NC(=O)[C@H](CC(=O)O)NC(=O)[C@@H]2CCCN2C(=O)CN)CSSC[C@@H](C(=O)N[C@H](C(=O)N[C@@H](Cc2ccccc2)C(=O)N[C@@H](Cc2c[nH]cn2)C(N)=O)[C@@H](C)O)NC(=O)[C@H](Cc2c[nH]c3ccccc23)NC(=O)[C@H](C(C)C)NC1=O [Peptide C35A, GPDCAYHRGELVWCTFH] (H-GPDCAYHRGELVWCTFH-NH2; disulfide 4-14) | 8.05 |  |  | 

More lines, now with the values ahead:

Row | pKd [1] | affinity compared with the parent peptide, in words | affinity compared with the original peptide, in words | pKd (SPR sensorgram analysis, human IgG, read-out: affinity (Kd value)) | Structure (SMILES)
8 | 6.60 | affinity-enhancing effect |  |  | CC(C)C[C@@H]1NC(=O)[C@H](CC(N)=O)NC(=O)CNC(=O)[C@H](CCCNC(=N)N)NC(=O)[C@H](Cc2c[nH]cn2)NC(=O)[C@H](Cc2ccc(O)cc2)NC(=O)[C@H](C)NC(=O)[C@@H](NC(=O)[C@@H](N)CC(=O)O)CSSC[C@@H](C(=O)N[C@H](C(N)=O)[C@@H](C)O)NC(=O)[C@H](Cc2c[nH]c3ccccc23)NC(=O)[C@H](C(C)C)NC1=O [GFc-C35-3/15 (T7H, N8R, T5A), DCAYHRGNLVWCT] (H-DCAYHRGNLVWCT-NH2; disulfide 2-12)
9 | 5.70 | reduced affinity |  |  | CC(C)C[C@@H]1NC(=O)[C@H](CC(N)=O)NC(=O)CNC(=O)[C@H](CCCNC(=N)N)NC(=O)[C@H](Cc2c[nH]cn2)NC(=O)[C@H](Cc2c[nH]c3ccccc23)NC(=O)[C@H]([C@@H](C)O)NC(=O)[C@@H](NC(=O)[C@@H](N)CC(=O)O)CSSC[C@@H](C(=O)N[C@H](C(N)=O)[C@@H](C)O)NC(=O)[C@H](Cc2c[nH]c3ccccc23)NC(=O)[C@H](C(C)C)NC1=O [GFc-C35-3/15 (T7H, N8R, Y6W), DCTWHRGNLVWCT] (H-DCTWHRGNLVWCT-NH2; disulfide 2-12)
10 | 4.08 |  |  |  | CC(C)C[C@@H]1NC(=O)[C@H](CC(N)=O)NC(=O)CNC(=O)[C@H](CC(N)=O)NC(=O)[C@H](CCCNC(=N)N)NC(=O)[C@H](Cc2ccc(O)cc2)NC(=O)[C@H]([C@@H](C)O)NC(=O)[C@@H](NC(=O)[C@@H](N)CC(=O)O)CSSC[C@@H](C(=O)N[C@H](C(N)=O)[C@@H](C)O)NC(=O)[C@H](Cc2c[nH]c3ccccc23)NC(=O)[C@H](C(C)C)NC1=O [GFc-C35-3/15 (T7R), DCTYRNGNLVWCT] (H-DCTYRNGNLVWCT-NH2; disulfide 2-12)
11 | 4.92 |  |  |  | CC[C@H](C)[C@@H]1NC(=O)[C@H](CC(C)C)NC(=O)[C@H](CC(N)=O)NC(=O)CNC(=O)[C@H](CC(N)=O)NC(=O)[C@H]([C@@H](C)O)NC(=O)[C@H](Cc2ccc(O)cc2)NC(=O)[C@H]([C@@H](C)O)NC(=O)[C@@H](NC(=O)[C@@H](N)CC(=O)O)CSSC[C@@H](C(=O)N[C@H](C(N)=O)[C@@H](C)O)NC(=O)[C@H](Cc2c[nH]c3ccccc23)NC1=O [GFc-C35-3/15 (V12I), DCTYTNGNLIWCT] (H-DCTYTNGNLIWCT-NH2; disulfide 2-12)
12 |  |  |  | 6.83 | CC(C)C[C@@H]1NC(=O)[C@H](CCC(=O)O)NC(=O)CNC(=O)[C@H](CCCNC(=N)N)NC(=O)[C@H](Cc2c[nH]cn2)NC(=O)[C@H](Cc2ccc(O)cc2)NC(=O)[C@H](C)NC(=O)[C@@H](NC(=O)[C@@H](N)CCCNC(=N)N)CSSC[C@@H](C(=O)N[C@@H](CO)C(N)=O)NC(=O)[C@H](Cc2c[nH]c3ccccc23)NC(=O)[C@H](C(C)C)NC1=O [RCAYHRGELVWCS] (H-RCAYHRGELVWCS-NH2; disulfide 2-12)

— US9365619B2, “IgG-binding peptide and method for detecting and purifying IgG using same” (Otsuka Chemical Co., Ltd., priority 2011, dated 2016)
